Assay results: US8779154B2, “Fused ring compounds for inflammation and immune-related uses” (priority 2006, dated 2014)

test system: IL-2 production; assay: Inhibition of IL-2 production in PHA-activated Jurkat cells (ELISA); format: cell-based; details: Homo sapiens, Jurkat, 20 h, PHA 2.5 μg/mL, IL-2 ELISA
Experimental: Jurkat cells were placed in a 96 well plate (0.5 million cells per well in 1% FBS medium) then a test compound of this invention was added at different concentrations. After 10 minutes, the cells were activated with PHA (final concentration 2.5 μg/mL) and incubated for 20 hours at 37° C. under CO2. The final volume was 200 μL. Following incubation, the cells were centrifuged and the supernatants collected and stored at −70° C. prior to assaying for IL-2 production. A commercial ELISA kit (IL-2 Eli-pair, Diaclone Research, Besancon, France) was used to detect production of IL-2, from which dose response curves were obtained. The IC50 value was calculated as the concentration at which 50% of maximum IL-2 production after stimulation was inhibited versus a non-stimulation control.

IC50 [µM] | SMILES
≤ 0.03 | Cn1cc(-c2ccc3c(c2)-c2sc(C(=O)Nc4c(F)cccc4F)nc2CCC3)cn1 [Compound 127]
0.03 to 0.1 | O=C(Nc1nc2c(s1)-c1ccncc1CCC2)c1c(F)cccc1F [Compound 87]
> 1 | O=C1NCc2ccc(Br)cc2-c2sc(NC(=O)c3c(F)cccc3F)nc21 [Compound 136]
0.25 to 0.5 | Fc1cccc(F)c1CNc1nc2c(s1)-c1cccc(-c3cnco3)c1CCC2 [Compound 69]
0.1 to 0.25 | O=C(Nc1nc2c(s1)-c1ccc(-c3nccs3)cc1CCC2)c1c(F)cccc1F [Compound 75]
0.03 to 0.1 | O=C(Nc1nc2c(s1)-c1ccc(I)cc1CCC2)c1c(F)cccc1F [Compound 72]
0.03 to 0.1 | O=C(Nc1c(F)cccc1F)c1nc2c(s1)-c1cc(Br)ccc1CCC2 [Compound 18]
0.03 to 0.1 | O=C(Nc1ccc2c(c1)CCCc1cnc(-c3cccnc3)nc1-2)c1c(F)cccc1F [Compound 99]
> 1 | O=C(Nc1nc2c(s1)-c1cc(Br)sc1CCC2)c1c(F)cccc1F [Compound 84]
0.03 to 0.1 | Nc1ccc(-c2ccc3c(c2)-c2sc(C(=O)Nc4c(F)cccc4F)nc2CCC3)cn1 [Compound 115]
0.25 to 0.5 | O=C(Nc1nc2c(s1)-c1cc(O)ccc1CCC2)c1c(F)cccc1F [Compound 79]
0.5 to 1 | COc1ccc2c(c1)-c1sc(C(=N)Nc3c(F)cccc3F)nc1CCC2 [Compound 152]
0.03 to 0.1 | O=C(Nc1nc2c(s1)-c1cccc(O)c1CCC2)c1c(F)cccc1F [Compound 51]
0.5 to 1 | COc1ccc2c(c1)CCCc1c-2ncc(NC(=O)c2c(F)cccc2F)[n+]1[O-] [Compound 97]
0.25 to 0.5 | O=C(Nc1c(F)cccc1F)c1nc2c(s1)-c1cc(OC(=O)n3ccnc3)ccc1CCC2 [Compound 111]
0.1 to 0.25 | CCOC(=O)N(C(=O)c1nc2c(s1)-c1cc(OC)ccc1CCC2)c1c(F)cccc1F [Compound 143]
0.25 to 0.5 | Cn1nnc(-c2ccc3c(c2)-c2sc(C(=O)Nc4c(F)cccc4F)nc2CCC3)n1 [Compound 41]
> 1 | O=C(Nc1c(F)cccc1F)c1nc2c(s1)-c1cc(-c3nnn[nH]3)ccc1CCC2 [Compound 40]
0.5 to 1 | O=C(Nc1c(F)cccc1F)c1nc2c(s1)-c1cc(-c3cnc[nH]3)ccc1CCC2 [Compound 131]
> 1 | O=C(Nc1nc2c(s1)-c1cc(Br)ccc1CCC2)c1c(F)cccc1F [Compound 17]
> 1 | COc1ccc2c(c1)-c1sc(NC(=O)c3c(F)cccc3F)nc1CCO2 [Compound 4]

IC50 [µM] | SMILES
> 1 | CN1Cc2ccc(Br)cc2-c2sc(NC(=O)c3c(F)cccc3F)nc2C1=O [Compound 135]
0.25 to 0.5 | CN1Cc2ccc(Br)cc2-c2sc(NC(=O)c3c(F)cccc3F)nc2C1 [Compound 138]
> 1 | C/N=C(/Nc1c(F)cccc1F)c1nc2c(s1)-c1cc(OC)ccc1CCC2 [Compound 145]
0.1 to 0.25 | COc1cccc2c1CCCc1nc(NC(=O)c3ccncc3F)sc1-2 [Compound 14]
0.1 to 0.25 | COc1ccc2c(c1)-c1sc(C(=O)Nc3c(F)cccc3F)nc1CCO2 [Compound 33]
0.1 to 0.25 | COc1cccc2c1CCCc1nc(NC(=O)c3c(F)cccc3F)ncc1-2 [Compound 91]
0.1 to 0.25 | O=C(Nc1nc2c(s1)-c1cccc(-c3nccs3)c1CCC2)c1c(F)cccc1F [Compound 70]
0.03 to 0.1 | O=C(Nc1c(F)cccc1F)c1nc2c(s1)-c1cc(-c3ccncc3)ccc1CCC2 [Compound 125]
0.1 to 0.25 | O=C(Nc1c(F)cccc1F)c1nc2c(s1)-c1cc(-c3ccnc(F)c3)ccc1CCC2 [Compound 118]
0.5 to 1 | O=Cc1cccc2c1CCCc1nc(NC(=O)c3c(F)cccc3F)sc1-2 [Compound 67]
> 1 | COc1ccc2c(c1)-c1sc(/C(=N/c3c(F)cccc3F)SC)nc1CCC2 [Compound 144]
≤ 0.03 | Cn1cncc1-c1ccc2c(c1)-c1sc(C(=O)Nc3c(F)cccc3F)nc1CCC2 [Compound 129]
≤ 0.03 | O=C(Nc1c(F)cccc1F)c1nc2c(s1)-c1cc(-c3ccccn3)ccc1CCC2 [Compound 37]
> 1 | O=C(Nc1nc2c(s1)-c1ccc(-c3nnn[nH]3)cc1CCC2)c1c(F)cccc1F [Compound 77]
> 1 | N#Cc1ccc2c(c1)-c1sc(NC(=O)c3c(F)cccc3F)nc1CCC2 [Compound 80]
> 1 | O=C(Nc1nc2c(s1)-c1ccsc1CCC2)c1c(F)cccc1F [Compound 85]
> 1 | O=C(Nc1c(F)cccc1F)c1nc2c(s1)-c1ccccc1CCC2 [Compound 31]
≤ 0.03 | O=C(Nc1c(F)cccc1F)c1nc2c(s1)-c1cc(-c3nccs3)ccc1CCC2 [Compound 34]
0.5 to 1 | COc1ccc2c(c1)-c1sc(NC(=O)Nc3c(F)cccc3F)nc1CCC2 [Compound 154]
0.25 to 0.5 | N=C(Nc1c(F)cccc1F)c1nc2c(s1)-c1cc(-c3cnco3)ccc1CCC2 [Compound 153]
> 1 | COc1ccc2c(c1)-c1sc(NC(=O)c3ccncc3F)nc1CCO2 [Compound 9]

IC50 [µM] | SMILES
0.25 to 0.5 | O=C(Nc1nc2c(s1)-c1ccccc1CCC2)c1c(F)cccc1F [Compound 16]
0.03 to 0.1 | Fc1cccc(F)c1NC(=S)c1nc2c(s1)-c1cc(-c3cnco3)ccc1CCC2 [Compound 148]
> 1 | COc1ccc2c(c1)-c1sc(NC(=O)c3ccncc3F)nc1CCC2 [Compound 3]
> 1 | O=C(Nc1nc2c(=O)oc3ccc(O)cc3c2s1)c1c(F)cccc1F [Compound 15]
0.5 to 1 | COc1ccc2c(c1)-c1cnc(NC(=O)c3c(F)cccc3F)nc1CCC2 [Compound 93]
0.25 to 0.5 | COc1cccc2c1CCCc1nc(C(=O)Nc3c(F)cccc3F)sc1-2 [Compound 6]
0.1 to 0.25 | O=C(Nc1c(F)cccc1F)c1ccc2c(c1)CCCc1cnc(-c3cccnc3)nc1-2 [Compound 142]
> 1 | O=C(Nc1c(F)cccc1F)c1nc2c(s1)-c1cc(CN3CCOCC3)ccc1CCC2 [Compound 42]
> 1 | CN1Cc2ccc(Br)cc2-c2sc(NCc3c(F)cccc3F)nc2C1 [Compound 137]
0.5 to 1 | CN(C)c1cccc(F)c1C(=O)Nc1nc2c(s1)-c1cc(C#N)ccc1CCC2 [Compound 81]
0.25 to 0.5 | O=C(Nc1ccc2c(c1)CCCc1cnc(C3CC3)nc1-2)c1c(F)cccc1F [Compound 110]
0.1 to 0.25 | O=C(Nc1nc2c(s1)-c1cc(-c3nccs3)ccc1CCC2)c1c(F)cccc1F [Compound 83]
> 1 | COc1ccc2c(c1)CCCCc1nc(NC(=O)c3c(F)cccc3F)ncc1-2 [Compound 98]
0.1 to 0.25 | COc1cc(-c2ccc3c(c2)-c2sc(C(=O)Nc4c(F)cccc4F)nc2CCC3)ccn1 [Compound 119]
≤ 0.03 | O=C(Nc1c(F)cccc1F)c1nc2c(s1)-c1cc(-c3cccnc3F)ccc1CCC2 [Compound 122]
0.25 to 0.5 | COc1ccc(-c2ccc3c(c2)-c2sc(C(=O)Nc4c(F)cccc4F)nc2CCC3)cn1 [Compound 121]
0.03 to 0.1 | COc1ccc2c(c1)-c1sc(NC(=O)c3c(F)cccc3F)nc1CCC2 [Compound 8]
> 1 | COc1ccc2c(c1)-c1cnc(NC(=O)c3c(F)cccc3F)nc1CCO2 [Compound 94]
> 1 | N#Cc1cc2c(s1)CCCc1nc(NC(=O)c3c(F)cccc3F)sc1-2 [Compound 86]

same assay, conditions: Homo sapiens, PHA 2.5 μg/mL, 20 hours, IL-2 ELISA

SMILES | IC50 [µM]
O=C(Nc1c(F)ccc([N+](=O)[O-])c1F)c1nc2c(s1)-c1ccc([N+](=O)[O-])cc1CCC2 [Compound 35] | 0.1 to 0.25
